Data reported in ChEMBL document CHEMBL1201862, “PubChem BioAssay data set” (2004).
The source made the active and inactive calls.

Columns and labels:
[1] = A375 melanoma cell cytotoxicity, dose response, counter-screen for MITF inhibitor project, CellTiter-Glo luminescence, dry powder, set 2 (AID 624489); assay type: functional, cell-based; settings: A-375;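 note: actives are compounds lowering A375 viability meaning general cytotoxicity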
[2] = A375 melanoma cell viability loss, dose response, counter-screen for MITF inhibitor project, CellTiter-Glo luminescence, dry powder, set 4 (AID 624364); assay type: functional, cell-based; settings: A-375;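 note: A375 melanoma cells are MITF independent so this is a counter screen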
Cytochrome P450 2D6 = Cytochrome P450 2D6 (Homo sapiens, UniProt P10635);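 note: CYP2D6 member of a cytochrome P450 panel assay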
[3] = Counterscreen for inhibitors of Trypanosoma brucei methionyl tRNA synthetase (MetRS): Luminescence-based cell-based high throughput dose response assay to identify compounds that are cytotoxic to Jurkat human T lymphocyte cells.; assay type: functional
[4] = target: T1, Methionyl-tRNA synthetase, putative (Trypanosoma brucei brucei, UniProt Q38C91); assay type: functional, Trypanosoma brucei brucei strain 927/4 GUTat10.1
T1 sequence (Q38C91 whole entry): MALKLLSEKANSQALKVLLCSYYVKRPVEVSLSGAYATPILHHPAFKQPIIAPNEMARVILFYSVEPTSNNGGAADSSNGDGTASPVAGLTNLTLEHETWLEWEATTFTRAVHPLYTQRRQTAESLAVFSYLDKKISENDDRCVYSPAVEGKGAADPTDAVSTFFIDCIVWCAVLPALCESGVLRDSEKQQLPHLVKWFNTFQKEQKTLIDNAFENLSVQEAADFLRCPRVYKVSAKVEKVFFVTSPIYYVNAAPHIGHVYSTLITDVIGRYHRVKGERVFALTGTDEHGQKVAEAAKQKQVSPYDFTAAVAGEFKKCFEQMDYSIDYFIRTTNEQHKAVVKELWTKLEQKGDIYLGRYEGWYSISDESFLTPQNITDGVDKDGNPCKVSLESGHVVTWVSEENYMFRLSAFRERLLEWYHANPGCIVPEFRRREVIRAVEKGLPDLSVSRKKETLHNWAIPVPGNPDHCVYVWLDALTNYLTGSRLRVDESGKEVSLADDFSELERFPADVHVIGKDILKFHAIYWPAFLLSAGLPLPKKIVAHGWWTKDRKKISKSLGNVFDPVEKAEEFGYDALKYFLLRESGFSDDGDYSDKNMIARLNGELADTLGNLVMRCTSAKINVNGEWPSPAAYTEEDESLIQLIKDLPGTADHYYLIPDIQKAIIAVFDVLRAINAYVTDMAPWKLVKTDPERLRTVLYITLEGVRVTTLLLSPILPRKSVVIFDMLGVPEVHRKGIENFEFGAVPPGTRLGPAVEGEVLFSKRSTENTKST

[5] = Luminescence Cell-Based Dose Retest to Confirm Inhibitors of Cancer Stem Cells. [Related pubchem assays (depositor defined):AID2717, AID2721]; assay type: functional; settings: Homo sapiens
Streptococcus = experiment: Group A Streptococcus viability loss, dose response, counter-screen for streptokinase expression inhibitor project, luminescence, BacTiterGlo (AID 1915); assay type: functional, organism-based;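 note: potency for reduction of bacterial viability or growth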
[6] = tested on: Streptococcus sp. 'group A'; experiment: growth inhibition of control SK(-) GAS strain, dose response, counter-screen for streptokinase expression inhibitor project, luminescence, kanamycin, BacTiterGlo, confirmation (AID 1900); assay type: functional, organism-based
[7] = Late stage counterscreen for inhibitors of Trypanosoma brucei methionyl tRNA synthetase (MetRS): Luminescence-based cell-based high throughput dose response assay to identify compounds that are cytotoxic to Jurkat human T lymphocyte cells.; assay type: functional
[8] = target: T1, Methionyl-tRNA synthetase, putative; assay type: functional, Trypanosoma brucei brucei strain 927/4 GUTat10.1; remark: listed apart in the source
Streptokinase A = target: T2, Streptokinase A (Streptococcus pyogenes serotype M1, UniProt P10520); experiment: S. pyogenes streptokinase expression inhibitors, potency, dose response, plasminogen activation absorbance, OD405 (AID 1914); assay type: functional, Streptococcus pyogenes M1 GAS;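 note: secreted streptokinase activity via plasminogen activation per viability signal from cell pellet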
T2 sequence (P10520 whole entry): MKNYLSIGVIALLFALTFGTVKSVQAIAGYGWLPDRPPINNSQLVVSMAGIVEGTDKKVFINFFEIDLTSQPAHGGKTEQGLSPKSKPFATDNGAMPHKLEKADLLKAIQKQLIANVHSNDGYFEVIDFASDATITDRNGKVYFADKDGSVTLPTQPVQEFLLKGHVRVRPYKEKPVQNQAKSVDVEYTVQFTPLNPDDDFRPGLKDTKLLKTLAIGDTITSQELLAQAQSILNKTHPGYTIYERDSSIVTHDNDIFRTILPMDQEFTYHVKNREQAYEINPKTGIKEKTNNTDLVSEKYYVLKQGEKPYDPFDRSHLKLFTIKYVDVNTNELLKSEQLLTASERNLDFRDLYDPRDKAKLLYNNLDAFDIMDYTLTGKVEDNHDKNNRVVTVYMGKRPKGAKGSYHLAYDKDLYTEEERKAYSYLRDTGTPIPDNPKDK

[9] = target: T3, NAD-dependent protein deacylase sirtuin-5, mitochondrial (Homo sapiens, UniProt Q9NXA8); experiment: SIRT5 desuccinylase inhibitors, dose response, biochemical, fluorescence imaging, cherry-pick, set 5 (AID 720591);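 note: desuccinylation of succinyl peptide AMC substrate read as fluorescence after trypsin release; potency of inhibitors that lower fluorescence and may act on trypsin instead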
[10] = inhibitors of HIV Env-driven cell fusion, dose response, cherry-pick (AID 652057); assay type: functional, cell-based
[11] = ZM109 Env clade C HIV-1 fusion inhibitors, dose response, HeLa effector, CEM target cells, luciferase, cherry-pick (AID 652058); assay type: functional, cell-based
[12] = inhibitors of clade B AD8 Env fusion, dose response, cell-based, cherry-pick (AID 652062); assay type: functional;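 note: luciferase signal from cell-cell fusion driven by HIV-1 clade B AD8 Env; potency is for inhibitors of fusion seen as a drop in luminescence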
[13] = HIV Env cell-cell fusion inhibitors, dose response, HIV entry, plate reader, dry powder (AID 687023); assay type: functional, cell-based
Vero = experiment: host cell cytotoxicity of antiviral hits, dose response, cytotoxicity control for West Nile virus antiviral project, secondary assay (AID 1650); assay type: functional; settings: Chlorocebus sabaeus
[14] = target: T4, DNA repair and recombination protein RAD54-like (Homo sapiens, UniProt Q92698); experiment: inhibitors of human RAD54 branch migration, confirmation, biochemical, fluorescence, cherry-picked samples, dose series (AID 651657); assay type: functional
T4 sequence (Q92698 whole entry): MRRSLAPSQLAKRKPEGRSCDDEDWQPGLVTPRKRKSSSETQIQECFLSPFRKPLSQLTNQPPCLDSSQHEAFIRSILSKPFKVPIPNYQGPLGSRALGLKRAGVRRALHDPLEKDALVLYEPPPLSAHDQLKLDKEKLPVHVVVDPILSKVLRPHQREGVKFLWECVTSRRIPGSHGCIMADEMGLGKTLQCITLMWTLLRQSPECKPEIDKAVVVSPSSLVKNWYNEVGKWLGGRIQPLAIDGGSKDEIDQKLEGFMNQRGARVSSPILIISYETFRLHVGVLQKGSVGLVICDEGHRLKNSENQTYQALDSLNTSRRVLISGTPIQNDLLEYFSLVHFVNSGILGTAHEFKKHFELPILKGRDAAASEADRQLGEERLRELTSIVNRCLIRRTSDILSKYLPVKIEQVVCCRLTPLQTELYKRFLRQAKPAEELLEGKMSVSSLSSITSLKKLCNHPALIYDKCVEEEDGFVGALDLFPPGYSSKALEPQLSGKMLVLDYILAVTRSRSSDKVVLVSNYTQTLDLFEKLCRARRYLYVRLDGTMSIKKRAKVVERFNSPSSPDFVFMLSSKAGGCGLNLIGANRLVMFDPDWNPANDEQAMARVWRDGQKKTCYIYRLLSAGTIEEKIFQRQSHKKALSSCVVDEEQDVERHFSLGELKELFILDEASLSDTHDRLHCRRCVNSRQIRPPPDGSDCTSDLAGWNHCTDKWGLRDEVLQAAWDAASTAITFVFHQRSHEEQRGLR

[15] = target: T5, Nuclear receptor subfamily 0 group B member 1 (Homo sapiens, UniProt P51843); experiment: Luminescence-based cell-based high throughput dose response assay for inhibitors of the orphan nuclear receptor subfamily 0, group B, member 1 (DAX1; NR0B1). [Related pubchem assays (depositor defined):AID504766, AID504790]; assay type: functional
T5 sequence (P51843 whole entry): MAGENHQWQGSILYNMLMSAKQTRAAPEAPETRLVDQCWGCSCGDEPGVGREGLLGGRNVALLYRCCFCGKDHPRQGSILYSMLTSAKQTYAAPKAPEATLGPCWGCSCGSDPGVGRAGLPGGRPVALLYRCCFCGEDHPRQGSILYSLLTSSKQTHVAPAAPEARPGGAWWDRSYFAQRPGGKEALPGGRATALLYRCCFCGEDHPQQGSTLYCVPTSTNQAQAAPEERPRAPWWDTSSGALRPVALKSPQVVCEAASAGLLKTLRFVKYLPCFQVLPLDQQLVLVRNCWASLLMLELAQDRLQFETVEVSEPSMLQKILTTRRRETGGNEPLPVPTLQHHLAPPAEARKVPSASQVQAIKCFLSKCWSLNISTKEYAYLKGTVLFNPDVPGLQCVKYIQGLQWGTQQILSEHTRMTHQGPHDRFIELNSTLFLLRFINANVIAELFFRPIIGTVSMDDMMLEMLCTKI

[16] = target: T6, DNA repair protein RAD52 homolog (Homo sapiens, UniProt P43351); assay type: functional, biochemical
T6 sequence (P43351 whole entry): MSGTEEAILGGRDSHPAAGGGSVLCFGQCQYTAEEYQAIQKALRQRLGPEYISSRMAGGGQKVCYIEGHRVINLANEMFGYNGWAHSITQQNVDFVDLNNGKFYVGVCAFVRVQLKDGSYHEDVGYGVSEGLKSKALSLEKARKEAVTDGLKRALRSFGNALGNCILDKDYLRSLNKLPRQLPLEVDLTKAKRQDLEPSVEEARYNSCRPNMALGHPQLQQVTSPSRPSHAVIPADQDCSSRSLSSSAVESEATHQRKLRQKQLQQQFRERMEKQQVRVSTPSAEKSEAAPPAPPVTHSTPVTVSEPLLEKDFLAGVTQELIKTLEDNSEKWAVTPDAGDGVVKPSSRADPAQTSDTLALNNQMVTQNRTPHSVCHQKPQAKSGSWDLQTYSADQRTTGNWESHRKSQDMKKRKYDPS

HEK293 = experiment: cells; assay type: functional, cell-based; settings: Homo sapiens
[17] = target: E3 ubiquitin-protein ligase UHRF1 (Homo sapiens, UniProt Q96T88); experiment: Counterscreen for inhibitors of 5-meCpG-binding domain protein 2 (MBD2): TRFRET-based biochemical high throughput dose response assay to identify inhibitors of binding of ubiquitin-like with PHD and ring finger domains 1 (UHRF1) to methylated oligonucleotide.
[18] = target: T7, Polyadenylate-binding protein 1 (Homo sapiens, UniProt P11940); experiment: PABP1 MLLE–PAM2 binding inhibitor potency, dose response, biochemical, fluorescence polarization, FITC-PAM2 peptide (AID 602259); assay type: functional; settings: read-out: IC50_Mean
[19] = target: Glutathione-S-transferase (Schistosoma japonicum, UniProt Q26513); experiment: biotin-GST/anti-GST TR-FRET signal inhibitors, dose response, artefact control for Vif-APOBEC3G degradation inhibitor project, biochemical (AID 1117362); assay type: functional
[20] = target: T8, Rac GTPase-activating protein 1 (Homo sapiens, UniProt Q9H0H5); experiment: MgcRacGAP GTPase-activating activity inhibitors, confirmation, biochemical, ADP Hunter fluorescence, primary and confirmatory (AID 624330); assay type: functional
T8 sequence (Q9H0H5 whole entry): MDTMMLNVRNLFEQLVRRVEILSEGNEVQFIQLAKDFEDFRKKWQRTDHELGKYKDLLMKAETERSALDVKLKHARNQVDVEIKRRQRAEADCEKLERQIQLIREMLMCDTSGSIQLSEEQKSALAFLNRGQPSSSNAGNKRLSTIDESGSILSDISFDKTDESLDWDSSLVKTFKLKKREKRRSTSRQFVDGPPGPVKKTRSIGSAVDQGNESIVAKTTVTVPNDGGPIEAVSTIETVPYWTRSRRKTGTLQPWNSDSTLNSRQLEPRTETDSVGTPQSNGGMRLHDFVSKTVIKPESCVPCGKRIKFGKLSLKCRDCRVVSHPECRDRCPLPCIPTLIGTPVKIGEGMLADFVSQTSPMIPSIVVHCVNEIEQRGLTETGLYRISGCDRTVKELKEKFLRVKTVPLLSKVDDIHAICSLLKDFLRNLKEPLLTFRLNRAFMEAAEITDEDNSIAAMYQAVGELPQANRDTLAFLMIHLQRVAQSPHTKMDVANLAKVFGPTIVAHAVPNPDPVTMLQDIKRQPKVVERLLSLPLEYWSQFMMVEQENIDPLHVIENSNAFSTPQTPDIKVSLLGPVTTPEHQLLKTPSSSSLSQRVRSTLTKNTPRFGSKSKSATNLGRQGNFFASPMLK

[21] = Artemis endonuclease inhibitor potency, dose response, biochemical, fluorescence intensity (AID 720701); assay type: functional;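 note: Artemis endonuclease enzyme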
[22] = target: T7, Polyadenylate-binding protein 1; experiment: PABP1 MLLE–PAM2 interaction inhibitors, dose response, miRNA deadenylation inhibitor project, biochemical, fluorescence polarization, Cy5-PAM2 peptide, secondary (AID 602260); assay type: functional; settings: read-out: IC50_Mean
[23] = target: Induced myeloid leukemia cell differentiation protein Mcl-1 (Homo sapiens, UniProt Q07820); assay type: functional
[24] = target: T3, NAD-dependent protein deacylase sirtuin-5, mitochondrial; experiment: SIRT5 deacylase inhibitors, dose response, biochemical, fluorescence imaging, cherry-pick, set 6 (AID 720597)

T7 sequence (P11940 whole entry): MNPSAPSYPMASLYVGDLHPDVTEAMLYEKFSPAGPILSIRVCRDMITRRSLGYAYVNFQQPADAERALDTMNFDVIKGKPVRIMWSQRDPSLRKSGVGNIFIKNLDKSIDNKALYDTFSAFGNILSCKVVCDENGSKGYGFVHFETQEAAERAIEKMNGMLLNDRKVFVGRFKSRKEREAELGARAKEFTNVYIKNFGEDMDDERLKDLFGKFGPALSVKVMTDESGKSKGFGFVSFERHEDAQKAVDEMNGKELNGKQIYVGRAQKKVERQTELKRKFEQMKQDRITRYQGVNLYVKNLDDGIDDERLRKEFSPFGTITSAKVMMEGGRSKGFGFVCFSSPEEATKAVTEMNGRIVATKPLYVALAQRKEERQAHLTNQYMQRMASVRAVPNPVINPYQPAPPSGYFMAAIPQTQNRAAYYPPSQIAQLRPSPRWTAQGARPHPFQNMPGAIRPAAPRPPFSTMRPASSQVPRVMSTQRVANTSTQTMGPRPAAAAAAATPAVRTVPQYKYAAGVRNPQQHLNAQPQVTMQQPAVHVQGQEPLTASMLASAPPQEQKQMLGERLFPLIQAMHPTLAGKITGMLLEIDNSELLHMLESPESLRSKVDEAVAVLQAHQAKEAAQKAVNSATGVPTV
T3 sequence (Q9NXA8 whole entry, the tested form may be a part): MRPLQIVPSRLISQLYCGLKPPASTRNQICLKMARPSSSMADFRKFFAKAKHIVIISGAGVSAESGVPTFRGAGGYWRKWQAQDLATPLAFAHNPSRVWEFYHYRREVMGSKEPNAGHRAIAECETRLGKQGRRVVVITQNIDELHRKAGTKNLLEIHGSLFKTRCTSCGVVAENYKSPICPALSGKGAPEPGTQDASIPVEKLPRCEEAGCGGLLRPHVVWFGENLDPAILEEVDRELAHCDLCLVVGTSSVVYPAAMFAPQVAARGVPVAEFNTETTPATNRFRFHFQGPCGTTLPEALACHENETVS
Chain of E3 ubiquitin-protein ligase UHRF1 (Q96T88 whole entry, the tested form may be a part): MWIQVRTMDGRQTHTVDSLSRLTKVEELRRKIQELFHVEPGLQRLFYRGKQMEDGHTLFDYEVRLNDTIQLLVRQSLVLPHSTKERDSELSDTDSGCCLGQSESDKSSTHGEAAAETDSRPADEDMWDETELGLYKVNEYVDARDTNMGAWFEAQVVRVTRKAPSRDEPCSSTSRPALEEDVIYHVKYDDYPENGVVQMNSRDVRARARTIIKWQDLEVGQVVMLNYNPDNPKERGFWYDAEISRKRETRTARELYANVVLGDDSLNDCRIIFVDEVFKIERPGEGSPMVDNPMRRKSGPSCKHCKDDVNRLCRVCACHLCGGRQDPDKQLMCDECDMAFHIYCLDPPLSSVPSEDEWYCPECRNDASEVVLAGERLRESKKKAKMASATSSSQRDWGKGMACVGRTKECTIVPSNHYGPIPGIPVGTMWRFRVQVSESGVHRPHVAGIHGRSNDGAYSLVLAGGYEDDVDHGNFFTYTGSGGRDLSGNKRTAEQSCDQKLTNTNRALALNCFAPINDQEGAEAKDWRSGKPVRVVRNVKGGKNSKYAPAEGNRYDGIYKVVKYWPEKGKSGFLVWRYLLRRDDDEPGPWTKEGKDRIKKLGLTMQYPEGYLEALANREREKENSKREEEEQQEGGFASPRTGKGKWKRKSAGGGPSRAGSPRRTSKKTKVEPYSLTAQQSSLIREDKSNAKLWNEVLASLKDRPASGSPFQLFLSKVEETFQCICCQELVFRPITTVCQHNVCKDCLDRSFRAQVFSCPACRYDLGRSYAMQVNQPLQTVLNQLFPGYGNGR
Chain of Cytochrome P450 2D6 (P10635 whole entry): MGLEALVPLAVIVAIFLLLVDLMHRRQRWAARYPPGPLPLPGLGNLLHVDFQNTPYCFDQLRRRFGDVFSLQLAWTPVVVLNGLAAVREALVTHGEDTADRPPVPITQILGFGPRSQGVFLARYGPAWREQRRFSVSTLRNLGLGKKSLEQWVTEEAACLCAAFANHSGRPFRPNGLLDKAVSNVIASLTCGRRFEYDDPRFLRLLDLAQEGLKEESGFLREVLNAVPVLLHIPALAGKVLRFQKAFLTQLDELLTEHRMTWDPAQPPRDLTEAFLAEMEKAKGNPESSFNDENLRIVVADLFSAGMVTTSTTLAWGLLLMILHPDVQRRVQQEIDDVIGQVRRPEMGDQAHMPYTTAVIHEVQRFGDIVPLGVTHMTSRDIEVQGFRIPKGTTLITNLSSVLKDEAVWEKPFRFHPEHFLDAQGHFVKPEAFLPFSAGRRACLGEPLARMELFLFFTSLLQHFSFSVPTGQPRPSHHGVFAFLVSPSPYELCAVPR
Chain of Glutathione-S-transferase (Q26513 whole entry): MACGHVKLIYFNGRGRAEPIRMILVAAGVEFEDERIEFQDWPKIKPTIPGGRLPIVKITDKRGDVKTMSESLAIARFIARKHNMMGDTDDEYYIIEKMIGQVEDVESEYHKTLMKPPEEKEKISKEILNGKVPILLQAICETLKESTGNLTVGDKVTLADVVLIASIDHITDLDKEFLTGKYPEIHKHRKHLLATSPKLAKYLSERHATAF
Chain of Induced myeloid leukemia cell differentiation protein Mcl-1 (Q07820 whole entry): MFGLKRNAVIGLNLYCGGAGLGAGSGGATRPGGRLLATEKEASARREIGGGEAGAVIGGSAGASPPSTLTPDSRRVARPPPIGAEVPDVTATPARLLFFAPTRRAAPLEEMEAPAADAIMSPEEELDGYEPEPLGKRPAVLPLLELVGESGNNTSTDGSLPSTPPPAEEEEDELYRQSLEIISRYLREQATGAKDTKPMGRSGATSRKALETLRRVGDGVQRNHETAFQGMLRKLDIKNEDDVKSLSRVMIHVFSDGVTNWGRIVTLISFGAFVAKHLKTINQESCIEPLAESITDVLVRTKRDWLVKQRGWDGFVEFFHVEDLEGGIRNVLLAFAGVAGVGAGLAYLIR

C=C1C(=O)OC2C1CC/C(C)=C\CCC1(C)OC21 (centres undefined)
AC50 [1]: 43.9 µM (active) | AC50 [2]: > 70 µM (inactive)

O=C(NNC(=O)c1cc(-c2ccc(Cl)c(Cl)c2)nc2ccccc12)Nc1ccccc1
AC50 (Cytochrome P450 2D6): 20 µM (inconclusive) | IC50 [3]: 34.2 µM (inactive) | IC50 [4]: 3.12 µM (active) | AC50 [5]: 4.94 µM (active) | EC50 (Streptococcus): 13.7 µM (active) | EC50 [6]: 4.69 µM (active) | IC50 [7]: 22.4 µM (inactive) | IC50 [8]: 1.64 µM (active) | EC50 (Streptokinase A): > 150 µM (not active)

CC(C)C[C@H](NS(=O)(=O)c1ccc(F)cc1F)C(=O)N1CCC[C@H]1C(=O)NCc1ccccc1
AC50 [9]: 15.3 µM (active)

Cn1c(C(=O)N2CCN(c3nc4ccccc4s3)CC2)cc2sccc21
AC50 [10]: 3.01 µM (active) | AC50 [11]: 4.97 µM (active) | AC50 [12]: 16.4 µM (active) | AC50 [13]: 8.02 µM (active)

CCOC(=O)c1cnc2c(ccc3ccccc32)c1NCCCN(C)C
CC50 (Vero): > 100 µM (active) | AC50 [14]: 3.38 µM (active) | IC50 [15]: > 67.5 µM (inactive) | AC50 [16]: 1.38 µM (active) | IC50 (HEK293): > 67.5 µM (inactive) | IC50 [17]: 35.7 µM (inactive)

COc1ccc2c3c(cccc13)N(C)N=C2C
IC50 [18]: > 66 µM (inactive) | IC50 [19]: 36.6 µM (active) | IC50 [20]: 34.4 µM (active) | IC50 [21]: > 20 µM (inactive) | IC50 [22]: > 66 µM (inactive) | IC50 [23]: 1.33 µM (active)

O=C(O)CCNc1ncnc2ccccc12
AC50 [24]: > 30 µM (inactive)
